According to paper PMC9232612, “A phase 1b randomised controlled trial of a glucagon-like peptide-1 and glucagon receptor dual agonist IBI362 (LY3305677) in Chinese patients with type 2 diabetes” (Nature Communications, 2022):
Several values for one entry are separate records, joined by “and”; a condition that tells them apart may be missing. Identical values can stand only once.

Experiments:
[1] = system: Chinese patients with T2D; experiment: Glycated haemoglobin A1c (HbA1c); assay type: in vivo, human; conditions: for Change from baseline to week 12 in HbA1c, single patients / HbA1c at week 12, single patients: each line a single patient; for Change from baseline in HbA1c, LS mean / Change from baseline in HbA1c, LS mean (SE) / HbA1c: ETD versus placebo, LS mean (90% CI): MMRM
Protocol: (§1) HbA1c (2200101, Bio-Rad, USA), blood glucose (05168791190, Roche Diagnostics, Germany), insulin (12017547122, Roche Diagnostics, Germany), C peptide (03184897190, Roche Diagnostics, Germany), total GLP-1 (GLP-1 [7–36] amide and its metabolite, GLP-1 [9–36] amide, 10-1278-01, Mercodia AB, Sweden) and OXM (AL-139, AnshLabs, USA) tests were performed according to the manufactures’ instruction manuals in a central laboratory (KingMed Diagnostics, Guangzhou, China). HbA1c was measured using a Bio-rad D-100 Haemoglobin Testing System (Bio-rad). Blood glucose was measured using a Roche Cobas c702 analyser (Roche Diagnostics). Insulin and C peptide were measured using a Roche […] analyser (Roche Diagnostics). GLP-1 and OXM were measured using a Tecan Infinite M Plex microplate reader (TECAN).
(§2) Standard non-compartmental pharmacokinetics methods were used to analyze IBI362 plasma concentration data using Pkanalix 2020R1 (Lixoft, Antony, France). Secondary efficacy outcomes included change from baseline to week 12 in HbA1c, fasting plasma glucose (FPG), fasting insulin levels, change from baseline to week 12 in post-mixed-meal tolerance test (post-MTT) glucose, insulin, C peptide, GLP-1 and OXM levels, as well as seven-point self-measured blood glucose (SMBG) profile.
(§3) The analyses for change from baseline in HbA1c, FPG, post-MTT glucose AUC0–4 h and body weight were performed using the mixed-effect model for repeated measures (MMRM) with least-squares means and standard error provided. The MMRM included the corresponding baseline value, treatment, visit and treatment-by-visit as fixed effects and patient as a random effect. Mean change or mean percent change from baseline were analysed using a restricted maximum likelihood (REML)‐based repeated measures approach in combination with the Newton Raphson Algorithm. The fix effect of visit was fitted as a repeated effect and an unstructured covariance matrix was used. In case of non-converge, matrix like Variance Components and Compound Symmetry will be tested in a subsequent order until model‐convergence is achieved. The Kenward-Roger degree of freedom was used in estimating fixed effects. No missing data imputation was conducted. For HbA1c, FPG and body weight, point estimate of treatment difference versus placebo and 90% CI were provided for each IBI362 dose group and the dulaglutide group, with nominal p values.

[2] = system: Chinese patients with T2D; experiment: Homeostatic model assessment of β-cell function (HOMA-β); assay type: in vivo, human; conditions: for Change from baseline to week 12 in HOMA-β, individual: single patients
Description: Exploratory outcomes included change from baseline in body weight, waist circumference, body-mass index (BMI) and change in homeostatic model assessment of β-cell function (HOMA-β) and insulin resistance (HOMA-IR).

[3] = system: Chinese patients with T2D; experiment: Fasting plasma glucose (FPG); assay type: in vivo, human; conditions: MMRM; for Change from baseline in fasting plasma glucose, LS mean / Change from baseline in fasting plasma glucose, LS mean (SE): n=8; for Change from baseline in fasting plasma glucose, LS mean (SE) / Fasting plasma glucose: ETD versus placebo, LS mean (90% CI): week 12
Protocol: as §1, §2, §3

[4] = system: human glucagon receptors; conditions: in vitro; cited from earlier work
Description: (§4) IBI362 (also known as LY3305677) is a once-weekly synthetic peptide analogue of mammalian OXM, with a fatty-acyl moiety to extend the half-life[13].

[5] = system: mouse glucagon receptors; conditions: in vitro; cited from earlier work
Description: as §4

[6] = system: mouse GLP-1 receptors; conditions: in vitro; cited from earlier work
Description: as §4

## CC(C)C[C@H](NC(=O)[C@H](CC(C)C)NC(=O)[C@H](Cc1c[nH]c2ccccc12)NC(=O)[C@H](CCC(=O)O)NC(=O)[C@@H](NC(=O)[C@H](Cc1ccccc1)NC(=O)[C@H](CCC(=O)O)NC(=O)[C@H](CCCCNC(=O)COCCOCCNC(=O)COCCOCCNC(=O)CC[C@H](NC(=O)CCCCCCCCCCCCCCCCCCC(=O)O)C(=O)O)NC(=O)[C@H](C)NC(=O)[C@H](CCCCN)NC(=O)[C@H](CCCCN)NC(=O)[C@H](CCC(=O)O)NC(=O)[C@H](CC(=O)O)NC(=O)[C@H](CC(C)C)NC(=O)[C@H](Cc1ccc(O)cc1)NC(=O)[C@H](CCCCN)NC(=O)[C@H](CO)NC(=O)[C@H](Cc1ccc(O)cc1)NC(=O)[C@H](CC(=O)O)NC(=O)[C@H](CO)NC(=O)[C@@H](NC(=O)[C@H](Cc1ccccc1)NC(=O)[C@@H](NC(=O)CNC(=O)[C@H](CCC(N)=O)NC(=O)C(C)(C)NC(=O)[C@@H](N)Cc1c[nH]cn1)[C@@H](C)O)[C@@H](C)O)C(C)C)C(=O)N[C@@H](CCC(=O)O)C(=O)NCC(=O)NCC(=O)N1CCC[C@H]1C(=O)N[C@@H](CO)C(=O)N[C@@H](CO)C(=O)NCC(N)=O [IBI362]
[1]; 6.0 mg cohort, n=8
  Percent of patients with change from baseline to week 12 in HbA1c ≥1.0% and <1.5%: 0.0%
  Percent of patients with change from baseline to week 12 in HbA1c ≥1.5% and <2.0%: 37.5%
  Percent of patients with change from baseline to week 12 in HbA1c ≥2.0%: 37.5%
[1]; all IBI362 cohorts, n=24
  Percent of patients with change from baseline to week 12 in HbA1c <1.0%: 8.3%
  Percent of patients with change from baseline to week 12 in HbA1c ≥1.0% and <1.5%: 16.7%
  Percent of patients with change from baseline to week 12 in HbA1c ≥1.5% and <2.0%: 29.2%
  Percent of patients with change from baseline to week 12 in HbA1c ≥2.0%: 33.3%
[1]; 3.0 mg cohort
  Change from baseline to week 12 in HbA1c, single patients: -2.8% and -1.4% and -1.0% and -1.9% and -1.8% and -2.7% and -1.3%
  HbA1c at week 12, single patients: 6.4% and 6.1% and 8.6% and 7.3% and 6.8% and 6.7% and 7.4%
[1]; 4.5 mg cohort
  Change from baseline to week 12 in HbA1c, single patients: -1.2% and -1.7% and -2.3% and -3.3% and -3.7%
  HbA1c at week 12, single patients: 6.1% and 6.3% and 5.7% and 6.9% and 6.8% and 6.0%
[1]; 6.0 mg cohort
  HbA1c at week 12, single patients: 7.0% and 6.8% and 5.9% and 6.1% and 7.1% and 5.8% and 7.8%
[1]; week 4, 3.0 mg cohort, n=8
  Change from baseline in HbA1c, LS mean: -0.38%
[1]; week 4, 4.5 mg cohort, n=8
  Change from baseline in HbA1c, LS mean: -0.80%
[1]; week 4, 6.0 mg cohort, n=8
  Change from baseline in HbA1c, LS mean: -0.61%
[1]; week 8, 3.0 mg cohort, n=8
  Change from baseline in HbA1c, LS mean: -0.98%
[1]; week 8, 4.5 mg cohort, n=8
  Change from baseline in HbA1c, LS mean: -1.58%
[1]; week 8, 6.0 mg cohort, n=8
  Change from baseline in HbA1c, LS mean: -1.32%
[1]; week 12, 3.0 mg cohort, n=8
  Change from baseline in HbA1c, LS mean (SE): -1.46%
[1]; week 12, 3.0 mg cohort
  HbA1c: ETD versus placebo, LS mean (90% CI): −0.59%
[1]; week 12, 4.5 mg cohort, n=8
  Change from baseline in HbA1c, LS mean (SE): -2.23%
[1]; week 12, 4.5 mg cohort
  HbA1c: ETD versus placebo, LS mean (90% CI): −1.35%
[1]; week 12, 6.0 mg cohort, n=8
  Change from baseline in HbA1c, LS mean (SE): -1.66%
[1]; week 12, 6.0 mg cohort
  HbA1c: ETD versus placebo, LS mean (90% CI): −0.79%
[1]; week 12, all IBI362 cohorts
  patients achieving HbA1c level of 6.5% or lower: nine
[1]; week 12, all IBI362 cohorts, n=24
  patients achieving ≥1.5% reductions in HbA1c from baseline: 62.5%
[2]; 3.0 mg cohort, n=7
  Change from baseline to week 12 in HOMA-β, mean: 9.2%
  Change from baseline to week 12 in HOMA-β, individual: -8.1% and 15.7% and 23.0% and -3.8% and 14.4% and 16.4% and 6.9%
[2]; 4.5 mg cohort, n=5
  Change from baseline to week 12 in HOMA-β, mean: 26.4%
  Change from baseline to week 12 in HOMA-β, individual: -9.6% and 82.4% and -0.3% and 47.8% and 11.6%
[2]; 6.0 mg cohort, n=8
  Change from baseline to week 12 in HOMA-β, mean: 21.0%
  Change from baseline to week 12 in HOMA-β, individual: -6.2% and 6.9% and 72.2% and 5.4% and 33.9% and 27.9% and -1.8% and 29.8%
[3]; week 4, 3.0 mg cohort
  Change from baseline in fasting plasma glucose, LS mean: -2.29 mmol/L
[3]; week 4, 4.5 mg cohort
  Change from baseline in fasting plasma glucose, LS mean: -2.47 mmol/L
[3]; week 4, 6.0 mg cohort
  Change from baseline in fasting plasma glucose, LS mean: -3.03 mmol/L
[3]; week 8, 3.0 mg cohort
  Change from baseline in fasting plasma glucose, LS mean: -2.95 mmol/L
[3]; week 8, 4.5 mg cohort
  Change from baseline in fasting plasma glucose, LS mean: -3.38 mmol/L
[3]; week 8, 6.0 mg cohort
  Change from baseline in fasting plasma glucose, LS mean: -3.50 mmol/L
[3]; 3.0 mg cohort
  Change from baseline in fasting plasma glucose, LS mean (SE): −3.38 (0.49) mmol/L and −3.38 mmol/L
  Fasting plasma glucose: ETD versus placebo, LS mean (90% CI): -0.85 mmol/L
[3]; 4.5 mg cohort
  Change from baseline in fasting plasma glucose, LS mean (SE): -3.82 mmol/L
  Fasting plasma glucose: ETD versus placebo, LS mean (90% CI): -1.30 mmol/L
[3]; 6.0 mg cohort
  Change from baseline in fasting plasma glucose, LS mean (SE): -4.07 mmol/L
[4]
  binding: potently bound
[5]
  binding: potently bound
[6]
  binding: potently bound
